Measurements from EP2030621A1, “Novel substituted pyrimidines as cysteine protease inhibitors” (GLAXO GROUP LIMITED, priority 2007, dated 2009).
Where a name gives a salt, the structure may show the parent alone.

tested on: Plasmodium falciparum parasite; experiment: Whole cell assay: whole cell activity against the parasite; format: cell-based; settings: not given
Source text: Compounds can be evaluated for whole cell actvity against the Plasmadium falciparum parasite according to the procedure described in Sijwali S. and Rosenthal P. J., (2004) Proceedings of the National Academy of Sciences of the United States of America (PNAS) 101(13), 4384-4389 (see in particular "Measurement of Parasite Growth rates and Inhibitor Sensitivity" on page 4385); IC50 values can be calculated as described in Singh A. and Rosenthal P. J., (2001) Antimicrobial Agents and Chemotherapy 45(3), 949-951 (see in particular page 950, first column); synchronised parasites can be prepared as described in Divo A. A. et al., (1985) Protozool. 32, 59-64. 3) In vitro models to evaluate activity against bone metastasis

| IC50 [nM] | Compound |
| --- | --- |
| 15 to 150 | CC(=O)N1CCC(N(NC(=O)OC(C)(C)C)c2nc(C#N)ncc2Br)CC1 [Example 79, 1,1-dimethylethyl 2-(1-acetyl-4-plperidinyl)-2-(5-bromo-2-cyano-4-pyrimidinyl)hydrazinecarboxylate] |
| 15 to 150 | CN1CCN(c2ncc(C(=O)NN(c3nc(C#N)ncc3Cl)C3CCCC3)s2)CC1 [Example 77] |

same assay, conditions: Plasmodium falciparum

| IC50 [nM] | Compound |
| --- | --- |
| 15 to 150 | CC(=O)N1CCC(N(NC(=O)c2ccc(CN3CCC(C(=O)N4CCN(C)CC4)CC3)cc2)c2nc(C#N)ncc2Br)CC1 [Example 49, N'-(1-acetyl-4-piperidinyl)-N'-(5-bromo-2-cyano-4-pyrimidinyl)-4-({4-[(4-methyl-1-piperazinyl)carbonyl]-1-piperidinyl}methyl)benzohydrazide trifluoroacetate] |
| 2.5 to 15 | CN1CCN(C2CCN(Cc3cccc(C(=O)NN(c4nc(C#N)ncc4Br)C4CCCCC4)c3)CC2)CC1 [Example 20, N'-(5-bromo-2-cyano-4-pyrimidinyl)-N'-cyclohexyl-3-{[4-(4-methyl-1-piperazinyl)-1-piperidinyl]methyl}benzohydrazide trifluoroacetate] |
| 15 to 150 | N#Cc1ncc(Br)c(N(NC(=O)c2cccc(CN3CCC(N4CCOCC4)CC3)c2)C2CCCC2)n1 [Example 13, N'-(5-bromo-2-cyano-4-pyrimidinyl)-N'-cyclopentyl-3-{[4-(4-morpholinyl)-1-piperidinyl]methyl}benzohydrazide trifluoroacetate] |
| 2.5 to 15 | CN1CCN(Cc2ccc(C(=O)NN(c3nc(C#N)ncc3Br)C3CCCCC3)cc2)CC1 [Example 16, N'-(5-bromo-2-cyano-4-pyrimidinyl)-N'-cyclohexyl-4-[(4-methyl-1-piperazinyl)methyl]benzohydrazide trifluoroacetate] |
| 2.5 to 15 | CCN(CCCNC(=O)OC(C)(C)C)Cc1ccc(C(=O)NN(c2nc(C#N)ncc2Cl)C2CCCC2)cc1 [Example 81, 1,1-dimethylethyl {3-[[(4-{[2-(5-chloro-2-cyano-4-pyrimidinyl)-2-cyclopentylhydrazino]carbonyl}phenyl)methyl](ethyl)amino]propyl}carbamate] |
| 2.5 to 15 | CN1CCN(C2CCN(Cc3ccc(C(=O)NN(c4nc(C#N)ncc4Br)C4CCCCC4)cc3)CC2)CC1 [Example 17, N'-(5-bromo-2-cyano-4-pyrimidinyl)-N'-cyclohexyl-4-{[4-(4-methyl-1-piperazinyl)-1-piperidinyl]methyl}benzohydrazide trifluoroacetate] |
| 2.5 to 15 | CN1CCCC(CN2CCN(Cc3cccc(C(=O)NN(c4nc(C#N)ncc4Br)C4CCCCC4)c3)CC2)C1 (stereo not drawn) [Example 27, N'-(5-bromo-2-cyano-4-pyrimidinyl)-N'-cyclohexyl-3-({4-[(1-methyl-3-piperidinyl)methyl]-1-piperazinyl}methyl)benzohydrazide trifluoroacetate] |
| < 1 | CC1CCC(N(NC(=O)c2ccc(CN3CCC(N4CCN(C)CC4)CC3)cc2)c2nc(C#N)ncc2Br)C1 (stereo not drawn) [Example 4, N'-(5-bromo-2-cyano-4-pyrimidinyl)-N'-(3-methylcyclopentyl)-4-{[4-(4-methyl-1-piperazinyl)-1-piperidinyl]methyl}benzohydrazide trifluoroacetate] |
| 15 to 150 | CCN(CC)Cc1ccc(C(=O)NN(c2nc(C#N)ncc2Cl)C2CCCC2)cc1 [Example 66, N'-(5-chloro-2-cyano-4-pyrimidinyl)-N'-cyclopentyl-4-[(diethylamino)methyl]benzohydrazide trifluoroacetate] |
| 2.5 to 15 | CN1CCN(C2CCN(Cc3cccc(C(=O)NN(c4nc(C#N)ncc4Br)C4CCCC4)c3)CC2)CC1 [Example 11, N'-(5-bromo-2-cyano-4-pyrimidinyl)-N'-cyclopentyl-3-{[4-(4-methyl-1-piperazinyl)-1-piperidinyl]methyl}benzohydrazide trifluoroacetate] |
| 2.5 to 15 | CN1CCC(CN2CCN(Cc3ccc(C(=O)NN(c4nc(C#N)ncc4Br)C4CCCCC4)cc3)CC2)CC1 [Example 19, N'-(5-bromo-2-cyano-4-pyrimidinyl)-N'-cyclohexyl-4-({4-[(1-methyl-4-piperidinyl)methyl]-1-piperazinyl}methyl)benzohydrazide trifluoroacetate] |
| 2.5 to 15 | CN1CCCC(CN2CCN(Cc3cccc(C(=O)NN(c4nc(C#N)ncc4Br)C4CCCC4)c3)CC2)C1 (stereo not drawn) [Example 14, N'-(5-bromo-2-cyano-4-pyrimidinyl)-N'-cyclopentyl-3-({4-[(1-methyl-3-piperidinyl)methyl]-1-piperazinyl}methyl)benzohydrazide trifluoroacetate] |
| 2.5 to 15 | CN1CCN(Cc2ccc(-c3ccc(C(=O)NN(c4nc(C#N)ncc4Br)C4CCCC4)cn3)cc2)CC1 [Example 46, N'-(5-bromo-2-cyano-4-pyrimidinyl)-N'-cyclopentyl-6-{4-[(4-methyl-1-piperazinyl)methyl]phenyl}-3-pyridinecarbohydrazide trifluoroacetate] |
| 15 to 150 | CN1CCN(Cc2ccc(-c3cncc(C(=O)NN(c4nc(C#N)ncc4Br)C4CCCC4)c3)cc2)CC1 [Example 45, N'-(5-bromo-2-cyano-4-pyrimidinyl)-N'-cyclopentyl-5-{4-[(4-methyl-1-piperazinyl)methyl]phenyl}-3-pyridinecarbohydrazide trifluoroacetate] |
| 2.5 to 15 | N#Cc1ncc(Br)c(N(NC(=O)c2cccc(CN3CCC(N4CCOCC4)CC3)c2)C2CCCCC2)n1 [Example 24, N'-(5-bromo-2-cyano-4-pyrimidinyl)-N'-cyclohexyl-3-{[4-(4-morpholinyl)-1-piperidinyl]methyl}benzohydrazide trifluoroacetate] |
| 15 to 150 | CCCCCCN(C)Cc1ccc(C(=O)NN(c2nc(C#N)ncc2Cl)C2CCCC2)cc1 [Example 56, N'-(5-chloro-2-cyano-4-pyrimidinyl)-N'-cyclopentyl-4-{[hexyl(methyl)amino]methyl}benzohydrazide trifluoroacetate] |
| 2.5 to 15 | CCN(Cc1ccc(C(=O)NN(c2nc(C#N)ncc2Cl)C2CCCC2)cc1)C1CCCCC1 [Example 69, N'-(5-chloro-2-cyano-4-pyrimidinyl)-4-{[cyclohexyl(ethyl)amino]methyl}-N'-cyclopentylbenzohydrazide trifluoroacetate] |
| 15 to 150 | CC1CCC(N(NC(=O)c2ccc(CN3CCN(C)CC3)cc2)c2nc(C#N)ncc2Br)C1 (mixture of isomers) [Example 26, N'-(5-bromo-2-cyano-4-pyrimidinyl)-N'-(3-methylcyclopentyl)-4-[(4-methyl-1-piperazinyl)methyl]benzohydrazide trifluoroacetate] |
| 2.5 to 15 | CN1CCCC(CN2CCN(Cc3ccc(C(=O)NN(c4nc(C#N)ncc4Br)C4CCCC4)cc3)CC2)C1 (stereo not drawn) [Example 8, N'-(5-bromo-2-cyano-4-pyrimidinyl)-N'-cyclopentyl-4-({4-[(1-methyl-3-piperidinyl)methyl]-1-piperazinyl}methyl)benzohydrazide trifluoroacetate] |
| 2.5 to 15 | CN(Cc1ccc(C(=O)NN(c2nc(C#N)ncc2Cl)C2CCCC2)cc1)C1CCCCC1 [Example 53, N'-(5-chloro-2-cyano-4-pyrimidinyl)-4-{[cyclohexyl(methyl)amino]methyl}-N'-cyclopentylbenzohydrazide trifluoroacetate] |
| 15 to 150 | CN(Cc1ccc(C(=O)NN(c2nc(C#N)ncc2Cl)C2CCCC2)cc1)C(C)(C)Cc1ccccc1 [Example 71, N'-(5-chloro-2-cyano-4-pyrimidinyl)-N'-cyclopentyl-4-{[(1,1-dimethyl-2-phenylethyl)(methyl)amino]methyl}benzohydrazide trifluoroacetate] |
| 15 to 150 | CN(Cc1ccc(C(=O)NN(c2nc(C#N)ncc2Cl)C2CCCC2)cc1)C1CCC2(CC1)OCC(C)(C)CO2 [Example 65, N'-(5-chloro-2-cyano-4-pyrimidinyl)-N'-cyclopentyl-4-{[(3,3-dimethyl-1,5-dioxaspiro[5.5]undec-9-yl)(methyl)amino]methyl}benzohydrazide trifluoroacetate] |
| 15 to 150 | CCCN(C)Cc1ccc(C(=O)NN(c2nc(C#N)ncc2Cl)C2CCCC2)cc1 [Example 55, N'-(5-chloro-2-cyano-4-pyrlmidinyl)-N'-cycyopentyl-4-{[methyl(propyl)amino]methyl}benzohydrazide trifluoroacetate] |
| 15 to 150 | N#Cc1ncc(Cl)c(N(NC(=O)c2ccc(CN3CCC(O)CC3)cc2)C2CCCC2)n1 [Example 70, N'-(5-chloro-2-cyano-4-pyrimidinyl)-N'-cyclopentyl-4-[(4-hydroxy-1-piperidinyl)methyl]benzohydrazide trifluoroacetate] |
| 15 to 150 | N#Cc1ncc(Br)c(N(NC(=O)c2ccc(CN3CCC(N4CCOCC4)CC3)cc2)C2CCCCC2)n1 [Example 18, N'-(5-bromo-2-cyano-4-pyrimidinyl)-N'-cyclohexyl-4-{[4-(4-morpholinyl)-1-piperidinyl]methyl}benzohydrazide trifluoroacetate] |
| 15 to 150 | N#Cc1ncc(Br)c(N(NC(=O)c2ccc(CN3CCC(O)CC3)cc2)C2CCCCC2)n1 [Example 21, N'-(5-bromo-2-cyano-4-pyrimidinyl)-N'-cyclohexyl-4-[(4-hydroxy-1-piperidinyl)methyl]benzohydrazide trifluoroacetate] |
| 15 to 150 | CN(CCC1OCCO1)Cc1ccc(C(=O)NN(c2nc(C#N)ncc2Cl)C2CCCC2)cc1 [Example 61, N'-(5-chloro-2-cyano-4-pyrimidinyl)-N'-cyclopentyl-4-{[[2-(1,3-dioxolan-2-yl)ethyl](methyl)amino]methyl}benzohydrazide trifluoroacetate] |

| Compound | IC50 [nM] |
| --- | --- |
| C[C@H]1CCC[C@H]1N(NC(=O)c1ccc(CN2CCN(C)CC2)cc1)c1nc(C#N)ncc1Br (racemic) [Example 2, N'-(5-bromo-2-cyano-4-pyrimidinyl)-N'-[(1R,2S+1S,2R)-2-methylcyclopentyl]-4-[(4-methyl-1-piperazinyl)methyl]benzohydrazide trifluoroacetate] | 15 to 150 |
